Source: patent US20080090734A1, “DRUG SCREENING AND TARGET IDENTIFICATION USING SPR IMAGING OF TARGET PROTEIN ARRAYS” (The Trustees of California State University, priority 2006, published 2008)

Tests used:
Assay in all cases: Antibiotic susceptibility profile
Assay type in all cases: cell-based, Acinetobacter baumannii
Parameters in all cases: key: Resistance; Intermediate; Susceptible
[1] = system: A. baumannii clinical isolate LAC 05
Source text: (§1) We obtained over thirty clinical isolates of A. baumannii from nosocomial infections in New York City and Los Angeles. […] Only antibiotics with breakpoints for A. baumannii were used. […] Isolates LA 01 to 20 were acquired from Los Angels County while NY-A to NY-H were obtained from New York City.
(§2) Antibiotic susceptibility profiles of clinical isolates of A. baumannii and reference strains. R, I, and S denote Resistance, Intermediate and Susceptible, respectively. Genetic Profiling of Clinical Isolates of A. baumannii

[2] = system: A. baumannii clinical isolate LAC 07
Source text: as §1, §2

[3] = system: A. baumannii clinical isolate LAC 09
Source text: as §1, §2

[4] = system: A. baumannii reference strain 19606; settings: strain 19606 (ATCC)
Source text: as §1, §2

[5] = system: A. baumannii reference strain 15839; settings: strain 15839 (ATCC)
Source text: as §1, §2

[6] = system: A. baumannii clinical isolate LAC 04
Source text: as §1, §2

[7] = system: A. baumannii clinical isolate LAC 18
Source text: as §1, §2

[8] = system: A. baumannii clinical isolate LAC 12
Source text: as §1, §2

[9] = system: A. baumannii clinical isolate NY C
Source text: as §1, §2

[10] = system: A. baumannii clinical isolate LAC 02
Source text: as §1, §2

[11] = system: A. baumannii clinical isolate NY E
Source text: as §1, §2

[12] = system: A. baumannii clinical isolate LAC 13
Source text: as §1, §2

[13] = system: A. baumannii clinical isolate LAC 08
Source text: as §1, §2

[14] = system: A. baumannii clinical isolate NY D
Source text: as §1, §2

[15] = system: A. baumannii clinical isolate NY G
Source text: as §1, §2

[16] = system: A. baumannii clinical isolate LAC 01
Source text: as §1, §2

[17] = system: A. baumannii clinical isolate NY H
Source text: as §1, §2

[18] = system: A. baumannii clinical isolate LAC 03
Source text: as §1, §2

[19] = system: A. baumannii clinical isolate NY F
Source text: as §1, §2

[20] = system: A. baumannii clinical isolate LAC 15
Source text: as §1, §2

[21] = system: A. baumannii clinical isolate LAC 10
Source text: as §1, §2

[22] = system: A. baumannii clinical isolate LAC 11
Source text: as §1, §2

[23] = system: A. baumannii reference strain AYE
Source text: as §1, §2

[24] = system: A. baumannii clinical isolate LAC 20
Source text: as §1, §2

[25] = system: A. baumannii clinical isolate LAC 06
Source text: as §1, §2

[26] = system: A. baumannii clinical isolate LAC 16
Source text: as §1, §2

[27] = system: A. baumannii clinical isolate NY A
Source text: as §1, §2

[28] = system: A. baumannii reference strain 17978; settings: strain 17978 (ATCC)
Source text: as §1, §2

[29] = system: A. baumannii reference strain SDF
Source text: as §1, §2

[30] = system: A. baumannii clinical isolate LAC 14
Source text: as §1, §2

[31] = system: A. baumannii clinical isolate NY B
Source text: as §1, §2

[32] = system: A. baumannii clinical isolate LAC 17
Source text: as §1, §2

[33] = system: A. baumannii clinical isolate LAC 19
Source text: as §1, §2

SMILES: NCC[C@H](O)C(=O)N[C@@H]1C[C@H](N)[C@@H](O[C@H]2O[C@H](CN)[C@@H](O)[C@H](O)[C@H]2O)[C@H](O)[C@H]1O[C@H]1O[C@H](CO)[C@@H](O)[C@H](N)[C@H]1O [AMK, Amikacin]
- Antibiotic susceptibility [1]: R
- Antibiotic susceptibility [2]: R
- Antibiotic susceptibility [3]: R
- Antibiotic susceptibility [4]: S
- Antibiotic susceptibility [5]: R
- Antibiotic susceptibility [6]: I
- Antibiotic susceptibility [7]: I
- Antibiotic susceptibility [8]: S
- Antibiotic susceptibility [9]: R
- Antibiotic susceptibility [10]: I
- Antibiotic susceptibility [11]: S
- Antibiotic susceptibility [12]: S
- Antibiotic susceptibility [13]: I
- Antibiotic susceptibility [14]: R
- Antibiotic susceptibility [15]: S
- Antibiotic susceptibility [16]: S
- Antibiotic susceptibility [17]: R
- Antibiotic susceptibility [18]: I
- Antibiotic susceptibility [19]: R
- Antibiotic susceptibility [20]: R
- Antibiotic susceptibility [21]: R
- Antibiotic susceptibility [22]: S
- Antibiotic susceptibility [23]: R
- Antibiotic susceptibility [24]: I
- Antibiotic susceptibility [25]: S
- Antibiotic susceptibility [26]: R
- Antibiotic susceptibility [27]: I
- Antibiotic susceptibility [28]: S
- Antibiotic susceptibility [29]: S
- Antibiotic susceptibility [30]: S
- Antibiotic susceptibility [31]: I
- Antibiotic susceptibility [32]: I
- Antibiotic susceptibility [33]: R

SMILES: C[C@H]1COc2c(N3CCN(C)CC3)c(F)cc3c(=O)c(C(=O)O)cn1c23 [LVX, Levofloxacin]
- Antibiotic susceptibility [1]: R
- Antibiotic susceptibility [2]: R
- Antibiotic susceptibility [3]: R
- Antibiotic susceptibility [4]: S
- Antibiotic susceptibility [5]: R
- Antibiotic susceptibility [6]: S
- Antibiotic susceptibility [7]: R
- Antibiotic susceptibility [8]: R
- Antibiotic susceptibility [9]: R
- Antibiotic susceptibility [10]: I
- Antibiotic susceptibility [11]: R
- Antibiotic susceptibility [12]: R
- Antibiotic susceptibility [13]: R
- Antibiotic susceptibility [14]: R
- Antibiotic susceptibility [15]: R
- Antibiotic susceptibility [16]: I
- Antibiotic susceptibility [17]: I
- Antibiotic susceptibility [18]: R
- Antibiotic susceptibility [20]: R
- Antibiotic susceptibility [21]: R
- Antibiotic susceptibility [22]: R
- Antibiotic susceptibility [23]: I
- Antibiotic susceptibility [24]: R
- Antibiotic susceptibility [25]: S
- Antibiotic susceptibility [26]: R
- Antibiotic susceptibility [27]: I
- Antibiotic susceptibility [28]: S
- Antibiotic susceptibility [29]: S
- Antibiotic susceptibility [30]: R
- Antibiotic susceptibility [31]: R
- Antibiotic susceptibility [32]: R
- Antibiotic susceptibility [33]: I

SMILES: CN(C)c1ccc(O)c2c1C[C@H]1C[C@H]3[C@H](N(C)C)C(O)=C(C(N)=O)C(=O)[C@@]3(O)C(O)=C1C2=O [MIN, Minocycline]
- Antibiotic susceptibility [1]: S
- Antibiotic susceptibility [2]: S
- Antibiotic susceptibility [3]: S
- Antibiotic susceptibility [4]: S
- Antibiotic susceptibility [5]: S
- Antibiotic susceptibility [6]: S
- Antibiotic susceptibility [7]: S
- Antibiotic susceptibility [8]: R
- Antibiotic susceptibility [9]: S
- Antibiotic susceptibility [10]: S
- Antibiotic susceptibility [11]: I
- Antibiotic susceptibility [12]: R
- Antibiotic susceptibility [13]: S
- Antibiotic susceptibility [14]: S
- Antibiotic susceptibility [15]: S
- Antibiotic susceptibility [16]: S
- Antibiotic susceptibility [17]: S
- Antibiotic susceptibility [18]: S
- Antibiotic susceptibility [20]: S
- Antibiotic susceptibility [21]: S
- Antibiotic susceptibility [22]: R
- Antibiotic susceptibility [23]: S
- Antibiotic susceptibility [24]: S
- Antibiotic susceptibility [25]: S
- Antibiotic susceptibility [26]: S
- Antibiotic susceptibility [27]: S
- Antibiotic susceptibility [28]: S
- Antibiotic susceptibility [29]: S
- Antibiotic susceptibility [30]: R
- Antibiotic susceptibility [31]: R
- Antibiotic susceptibility [32]: S
- Antibiotic susceptibility [33]: S
